Laboratory results reported in ChEMBL document CHEMBL4219107, “Synthesis and evaluation of 1H-pyrrole-2,5-dione derivatives as cholesterol absorption inhibitors for suppressing the formation of foam cells and inflammatory response” (Bioorg Med Chem, 2018).
Active and inactive are the calls of the source. The calls are words filed in the database; no cut-off is given here.

How the values were obtained:
[1] = Octanol-water partition coefficient, log P of the compound measured after 4 hrs by HPLC analysis; type: physicochemical
[2] = Cytotoxicity against HEK293 cells after 48 hrs by MTT assay; type: cell-based; conditions: human, read-out: LC50
[3] = Cytotoxicity against mouse RAW264.7 cells after 48 hrs by MTT assay; type: cell-based; conditions: read-out: LC50
[4] = target: T1, NPC1-like intracellular cholesterol transporter 1 (Homo sapiens) (UniProt Q9UHC9); assay: Inhibition of NPC1L1 in human Caco2 cells assessed as decrease in cholesterol uptake at 100 uM preincubated for 24 hrs followed by stigmosterol substrate addition measured after 24 hrs by HPLC method relative to control; type: cell-based
T1 sequence (whole entry): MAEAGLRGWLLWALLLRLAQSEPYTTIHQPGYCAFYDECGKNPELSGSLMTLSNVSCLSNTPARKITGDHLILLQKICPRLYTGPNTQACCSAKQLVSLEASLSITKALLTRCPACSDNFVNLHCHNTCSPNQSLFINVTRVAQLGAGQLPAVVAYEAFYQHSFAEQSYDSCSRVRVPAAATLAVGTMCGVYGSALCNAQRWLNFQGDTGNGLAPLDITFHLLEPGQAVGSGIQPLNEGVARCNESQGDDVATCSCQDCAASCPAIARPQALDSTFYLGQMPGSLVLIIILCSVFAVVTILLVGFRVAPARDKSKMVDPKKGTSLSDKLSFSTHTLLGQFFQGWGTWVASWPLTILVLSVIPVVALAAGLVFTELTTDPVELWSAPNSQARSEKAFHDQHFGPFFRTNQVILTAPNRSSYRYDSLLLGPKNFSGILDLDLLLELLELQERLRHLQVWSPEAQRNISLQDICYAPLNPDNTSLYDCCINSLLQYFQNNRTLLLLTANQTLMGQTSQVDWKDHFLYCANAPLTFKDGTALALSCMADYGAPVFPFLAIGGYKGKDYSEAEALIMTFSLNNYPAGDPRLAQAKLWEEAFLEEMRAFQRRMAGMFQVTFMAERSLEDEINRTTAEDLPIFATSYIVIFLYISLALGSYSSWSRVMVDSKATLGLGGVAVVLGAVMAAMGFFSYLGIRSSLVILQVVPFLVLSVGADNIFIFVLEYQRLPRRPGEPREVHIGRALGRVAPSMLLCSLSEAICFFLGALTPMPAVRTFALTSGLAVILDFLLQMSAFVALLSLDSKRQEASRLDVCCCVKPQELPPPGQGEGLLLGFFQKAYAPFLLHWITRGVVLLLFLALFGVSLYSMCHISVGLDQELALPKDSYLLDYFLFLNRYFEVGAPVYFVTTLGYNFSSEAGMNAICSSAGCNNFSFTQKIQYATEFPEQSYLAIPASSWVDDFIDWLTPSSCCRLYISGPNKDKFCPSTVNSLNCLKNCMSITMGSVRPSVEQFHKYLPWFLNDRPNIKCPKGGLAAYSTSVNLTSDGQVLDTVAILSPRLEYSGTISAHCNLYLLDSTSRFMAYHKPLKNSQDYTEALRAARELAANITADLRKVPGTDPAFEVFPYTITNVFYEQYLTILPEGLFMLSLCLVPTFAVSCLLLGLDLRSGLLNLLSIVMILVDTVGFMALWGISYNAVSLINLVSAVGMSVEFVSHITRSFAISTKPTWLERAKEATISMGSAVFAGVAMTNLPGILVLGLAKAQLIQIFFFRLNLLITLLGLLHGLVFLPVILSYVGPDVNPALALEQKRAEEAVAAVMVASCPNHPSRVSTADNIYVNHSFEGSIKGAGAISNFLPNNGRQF

[5] = target: NPC1-like intracellular cholesterol transporter 1 (Mus musculus) (UniProt Q6T3U4); assay: Inhibition of NPC1L1-mediated cholesterol-methyl-beta-cyclodextrin accumulation in mouse RAW264.7 cells assessed as decrease in foam cell formation by measuring decrease in LDH level at 30 uM relative to control; type: cell-based; design: scale not given: the % may be the effect or the level left
NPC1-like intracellular cholesterol transporter 1 (Mus musculus), sequence (Q6T3U4 21-1333 limits assumed): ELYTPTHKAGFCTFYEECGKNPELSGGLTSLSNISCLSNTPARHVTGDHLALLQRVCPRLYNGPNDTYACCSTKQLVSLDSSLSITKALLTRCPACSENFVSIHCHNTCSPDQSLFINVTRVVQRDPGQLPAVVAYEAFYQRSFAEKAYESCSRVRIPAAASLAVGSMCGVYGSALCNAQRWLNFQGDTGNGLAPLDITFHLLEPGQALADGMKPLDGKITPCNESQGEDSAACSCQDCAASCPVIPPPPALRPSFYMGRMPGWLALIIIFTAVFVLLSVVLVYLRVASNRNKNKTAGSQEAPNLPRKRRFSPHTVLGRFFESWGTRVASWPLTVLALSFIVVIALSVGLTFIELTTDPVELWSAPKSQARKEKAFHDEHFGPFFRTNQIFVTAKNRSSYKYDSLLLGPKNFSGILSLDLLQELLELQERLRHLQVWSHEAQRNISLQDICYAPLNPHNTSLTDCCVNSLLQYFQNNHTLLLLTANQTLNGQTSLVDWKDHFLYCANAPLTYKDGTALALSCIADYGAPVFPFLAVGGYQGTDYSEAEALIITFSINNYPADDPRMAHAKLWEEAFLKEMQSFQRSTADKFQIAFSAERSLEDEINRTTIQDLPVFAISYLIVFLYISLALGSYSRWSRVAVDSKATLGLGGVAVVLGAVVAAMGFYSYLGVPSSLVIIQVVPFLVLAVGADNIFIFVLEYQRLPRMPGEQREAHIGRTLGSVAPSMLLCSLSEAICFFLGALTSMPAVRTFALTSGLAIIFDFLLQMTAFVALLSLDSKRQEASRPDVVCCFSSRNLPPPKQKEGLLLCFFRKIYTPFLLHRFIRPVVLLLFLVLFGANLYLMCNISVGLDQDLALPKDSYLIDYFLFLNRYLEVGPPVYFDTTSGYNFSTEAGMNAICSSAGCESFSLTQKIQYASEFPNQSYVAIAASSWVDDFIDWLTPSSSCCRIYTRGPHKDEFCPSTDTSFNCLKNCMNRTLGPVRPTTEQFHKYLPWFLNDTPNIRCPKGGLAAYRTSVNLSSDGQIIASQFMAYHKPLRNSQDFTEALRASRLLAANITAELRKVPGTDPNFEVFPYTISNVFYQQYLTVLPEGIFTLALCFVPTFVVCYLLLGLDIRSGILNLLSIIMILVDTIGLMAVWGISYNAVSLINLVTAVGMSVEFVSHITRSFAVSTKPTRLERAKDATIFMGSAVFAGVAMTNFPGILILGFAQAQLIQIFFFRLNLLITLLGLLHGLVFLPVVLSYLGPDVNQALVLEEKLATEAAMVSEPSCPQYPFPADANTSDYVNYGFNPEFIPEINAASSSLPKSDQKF

RAW264.7 [6] = assay: Antiinflammatory activity against mouse RAW264.7 cells assessed as decrease in cholesterol-methyl-beta-cyclodextrin-induced TNFalpha release at 30 uM relative to control; type: functional; design: scale not given: the % may be the effect or the level left
[7] = target: NPC1-like intracellular cholesterol transporter 1 (Mus musculus) (UniProt Q6T3U4); assay: Inhibition of NPC1L1-mediated cholesterol-methyl-beta-cyclodextrin accumulation in mouse RAW264.7 cells incubated for 72 hrs by Oil Red O/hematoxyline staining based microscopic analysis; type: cell-based
RAW264.7 [8] = assay: Antiinflammatory activity against mouse RAW264.7 cells assessed as decrease in cholesterol-methyl-beta-cyclodextrin-induced ROS level; type: functional, cell-based
[9] = target: NPC1-like intracellular cholesterol transporter 1 (Mus musculus) (UniProt Q6T3U4); assay: Inhibition of NPC1L1 in mouse RAW264.7 cells assessed as decrease in choleserol-D7 absorption at 30 uM after 72 hrs by LC-MS/MS analysis relative to control; type: cell-based
[10] = target: NPC1-like intracellular cholesterol transporter 1 (Mus musculus) (UniProt Q6T3U4); assay: Inhibition of NPC1L1-mediated cholesterol-methyl-beta-cyclodextrin accumulation in mouse RAW264.7 cells assessed as decrease in foam cell formation by measuring decrease in LDH level; type: cell-based
RAW264.7 [11] = assay: Antiinflammatory activity against mouse RAW264.7 cells assessed as decrease in cholesterol-methyl-beta-cyclodextrin-induced TNFalpha release; type: functional, cell-based
[12] = target: T1, NPC1-like intracellular cholesterol transporter 1 (Homo sapiens); assay: Inhibition of NPC1L1 in human Caco2 cells assessed as decrease in cholesterol uptake at 100 uM preincubated for 24 hrs followed by stigmosterol substrate addition measured after 24 hrs by HPLC method; type: cell-based
[13] = target: NPC1-like intracellular cholesterol transporter 1 (Mus musculus) (UniProt Q6T3U4); assay: Inhibition of NPC1L1-mediated cholesterol-methyl-beta-cyclodextrin accumulation in mouse RAW264.7 cells assessed as decrease in foam cell formation by measuring decrease in MDA level at 30 uM relative to control; type: cell-based; design: scale not given: the % may be the effect or the level left
[14] = target: NPC1-like intracellular cholesterol transporter 1 (Mus musculus) (UniProt Q6T3U4); assay: Inhibition of NPC1L1-mediated cholesterol-methyl-beta-cyclodextrin accumulation in mouse RAW264.7 cells assessed as decrease in foam cell formation by measuring decrease in MDA level; type: cell-based
RAW264.7 [15] = assay: Antiinflammatory activity against mouse RAW264.7 cells assessed as decrease in cholesterol-methyl-beta-cyclodextrin-induced ROS level at 30 uM relative to control; type: functional; design: scale not given: the % may be the effect or the level left

SMILES	logP at 4 h [1]	CC50 at 48 h [2]	CC50 at 48 h [3]	inhibition [12]	other results
CCN(CC)CCCCOc1ccc(C2=C(c3ccc(F)cc3)C(=O)N(CCC(O)(c3ccccc3)c3ccccc3)C2=O)cc1	> 5	47.3 µM	43.2 µM		inhibition [4]: 69.6 to 72.6%
CCN(CC)CCCOc1ccc(C2=C(c3ccc(F)cc3)C(=O)N(CCC(O)(c3ccccc3)c3ccccc3)C2=O)cc1	> 5	32.7 µM	37.6 µM		inhibition [4]: 69.6 to 72.6%
O=C1C(c2ccc(O)cc2)=C(c2ccc(F)cc2)C(=O)N1CCC(O)(c1ccccc1)c1ccccc1	2 to 4	> 100 µM	> 100 µM	Active	Activity [5]: 33.3%; Activity (RAW264.7 [6]): 35.1%; inhibition [7]: Dose-dependent effect; Activity (RAW264.7 [8]): Dose-dependent effect; inhibition [9]: 67.9%; inhibition [10]: Dose-dependent effect; Activity (RAW264.7 [11]): Dose-dependent effect; Activity [13]: 79.6%; inhibition [14]: Dose-dependent effect; Activity (RAW264.7 [15]): 51%
O=C1C(c2ccc(O)cc2)=C(c2ccc(F)cc2)C(=O)N1CCCNS(=O)(=O)c1ccc(C(F)(F)F)cc1	2 to 4	19.7 µM	34.3 µM	Active	
CCc1ccc(S(=O)(=O)NCCN2C(=O)C(c3ccc(O)cc3)=C(c3ccc(F)cc3)C2=O)cc1	2 to 4	80.4 µM	> 100 µM	Active	
O=C1C(c2ccc(O)cc2)=C(c2ccc(F)cc2)C(=O)N1CCCNS(=O)(=O)c1ccc(OC(F)(F)F)cc1	2 to 4	24.8 µM	41.2 µM	Active	
O=C1[C@H](CC[C@H](O)c2ccc(F)cc2)[C@@H](c2ccc(O)cc2)N1c1ccc(F)cc1 [EZETIMIBE]		57.6 µM	44.2 µM		Activity [5]: 36.4%; Activity (RAW264.7 [6]): 30.9%; inhibition [7]: Dose-dependent effect; inhibition [9]: 80.3%; inhibition [4]: 51.3%; Activity [13]: 76.3%; Activity (RAW264.7 [15]): 46.5%
CCN(CC)CCOc1ccc(C2=C(c3ccc(F)cc3)C(=O)N(CCC(O)(c3ccccc3)c3ccccc3)C2=O)cc1	> 5	31.5 µM	32.7 µM		inhibition [4]: 69.6 to 72.6%
CCc1ccc(S(=O)(=O)NCCCN2C(=O)C(c3ccc(O)cc3)=C(c3ccc(F)cc3)C2=O)cc1	2 to 4	11.5 µM	17.2 µM	Active	
O=C1C(c2ccc(F)cc2)=C(c2ccc(OCCCS(=O)(=O)O)cc2)C(=O)N1CCC(O)(c1ccccc1)c1ccccc1				inactive	
O=C1C(c2ccc(F)cc2)=C(c2ccc(OCCS(=O)(=O)O)cc2)C(=O)N1CCC(O)(c1ccccc1)c1ccccc1				inactive	
O=C1C(c2ccc(F)cc2)=C(c2ccc(OCCCCS(=O)(=O)O)cc2)C(=O)N1CCC(O)(c1ccccc1)c1ccccc1				inactive	
Cc1ccc(S(=O)(=O)NCCCCN2C(=O)C(c3ccc(F)cc3)=C(c3ccc(OCC(=O)NCC(=O)NCC(=O)O)cc3)C2=O)cc1	2 to 4	> 100 µM	> 100 µM	Active	
CCc1ccc(S(=O)(=O)NCCCCN2C(=O)C(c3ccc(F)cc3)=C(c3ccc(OCC(=O)NCC(=O)NCC(=O)O)cc3)C2=O)cc1	2 to 4	> 100 µM	> 100 µM	Active	
